Results on two molecules are retold here after US20220280507A1, “USES OF 5-METHYLTETRAHYDROFOLATE AND ITS COMPOSITION” (Lianyungang Jinkang Hexin Pharmaceutical Co., Ltd., priority 2019, published 2022).

One assay concerns homocysteine (Hcy). As to the kind of experiment: Homocysteine (Hcy) in plasma of alcohol drinking rats. The format is in vivo, SD rats. As to conditions: plasma 6 h after Erguotou 20 ml·Kg−1. The protocol:
Experiment 2 Effect of 5-methyltetrahydrofolate on homocysteine (Hcy) in plasma of alcohol drinking rats.
30 SPF-grade SD rats were chosen in half male and half female, and divided into 5 groups with 6 rats in each group, including normal group, model group, positive drug group (Weihe Liver Protectant), 5-methyltetrahydrofolate administration groups (4 mg·Kg−1 medium dose group, 8 mg·Kg−1 high dose group, respectively). After fasting for 12 h, the administration groups were given Weihe Liver Protectant at 50 mg·kg−1, 5-methyltetrahydrofolate (Jinkang Hexin product) at 4 mg·Kg−1, 5-methyltetrahydrofolate (Jinkang Hexin product) at 8 mg·Kg−1, respectively. […] 6 h after drinking, blood was collected from the eye socket, treated with 0.5% EDTA-Na for anticoagulation (10 ml/L), immediately cooled in an ice bath, and centrifuged at 4° C. (3500r/min) for 15 min within 30 min. Plasma was collected and stored at −20° C. The plasma Hcy concentration was determined with high pressure liquid chromatography-fluorescence detection method.

The nature of assay [1]: Alcoholic fatty liver model, body weight during administration period. The class given is in vivo, SD rats. As to conditions: liquor model. The protocol: According to their weight, they were randomly divided into vehicle control group (purified water, ig), model control group (liquor, 10 ml·Kg−1), positive control group (bicyclol, 50 mg·Kg−1, ig), folic acid calcium salt high-dose group (4 mg·Kg−1), folic acid calcium salt medium-dose group (2 mg·Kg−1), folic acid calcium salt low-dose group (1 mg·Kg−1), in half female and half male, and 16 rats in each group. Purified water was used as a negative control, and bicyclol (place of origin: Beijing Xiehe Pharmaceutical Factory, specification: 25 mg/tablet, batch number: H20040467) was used as a positive control drug. Route of administration: all were administered by oral gavage. Dosage of administration: 1 mg·Kg−1, 2 mg·Kg−1, and 4 mg·Kg−1. Frequency of administration: once a day for 60 consecutive days.
Method of administration: administration started at prescribed doses on the day of modeling for 60 consecutive days and ended at the 60th day. At the same time, rats in each group were weighed every other week during administration period to monitor their body weight changes. On the 61st day, rats were dissected and serum was collected for determination of triglyceride (TG), total cholesterol (TC), malondialdehyde (MDA), superoxide dismutase (SOD) and liver histopathologic examination. The brain tissue of rats was taken out, and hippocampus tissue was separated on ice plate, prepared to homogenate with a mass fraction of 10% with purified water, then the homogenate was centrifuged to obtain supernatant. ELISA was used to detect the levels of inflammatory factors TNF-α and IL-1β in hippocampus tissue with continuous spectrum scanning microplate reader.

Another assay relates to hyperlipemia rats. Briefly: Hyperlipemia rats (high-fat diet), biochemical indexes TG, TC, SOD, MDA. The format is in vivo, SD rats. The protocol: Experiment 5 Effect of 5-Methyltetrahydrofolate Calcium on Hyperlipemia Rats
7 weeks later, one rat in the control group and one rat in the model group were sacrificed for liver tissue section to check fatty degeneration of hepatocytes (see Table 7) to confirm whether modeling was successful. The remaining 40 modeling rats were randomly divided into low-dose (1 mg·Kg−1) group, medium-dose (2 mg·Kg−1) group, high-dose (4 mg·Kg−1) group, positive drug group, and model group.
Bicyclol (place of origin: Beijing Xiehe Pharmaceutical Factory, specification: 25 mg/tablet, batch number: H20040467) was used as a positive drug.
After successful modeling, rats were administered drugs with dosages as prescribed for 60 consecutive days, continued to be fed with high-fat diet, and dissected on the 61st day. Liver was harvested and weighed, liver index was calculated, right lobe tissue was taken to prepare frozen sections, and fat staining was performed with Sudan III for pathological scoring according to guidelines for diagnosis and treatment of NAFLD. Another liver tissue was taken to prepare homogenate, and total cholesterol (TC), triglyceride (TG), malondialdehyde (MDA), and superoxide dismutase (SOD) in serum were detected.

The next assay concerns IL-6. Briefly: LPS-induced inflammatory response in astrocytes, IL-6 release (ELISA). The format is cell-based, Kunming mice. As to conditions: culture supernatant, LPS 1 μg·ml-1 + substance 10 μg·ml-1, 24 h, n=6. An excerpt:
(§1) Experiment 9 Inhibition of 5-Methyltetrahydrofolate and Curcumin on LPS-Induced Inflammatory Response in Astrocytes
(§2) The cerebral cortex of Kunming mice at 1˜2 d was taken out under aseptic conditions, washed 3 times with cold PBS after removing residual meninges and blood vessels, prepared into single cell suspension by blowing, centrifuged, the supernatant was discarded, and the precipitant was resuspended in AST basic medium (high-sugar DMEM containing 10% FBS). The suspension was inoculated into a culture flask coated with poly-L-lysine (0.1 mg/ml), and cultured in a CO2 incubator. After 24 h, tissue debris and non-adherent cells were removed by replacing the medium. Afterwards, the medium was replaced every 3 days until the cells reached 80% confluence, then the flask was placed on a constant temperature rotary shaker, where the suspension was centrifuged at 180 r/min, 37° C. for 18 h to remove oligodendrocytes and microglia from the upper layer. Then trypsin digestion was used for subculture. […]
(§3) LPS (1 μg·ml-1), LPS (1 μg·ml-1)+curcumin (10 μg·ml-1), LPS (1 μg·ml-1)+5-MTHF-Ca (10 μg·ml-1); experimental group: LPS (1 μg·ml-1)+curcumin (5 μg·ml-1)+5-MTHF-Ca (5 μg·ml-1). After 24 h, the culture supernatant was collected, and the cytokines IL-6, IL-1β and TNF-α were detected by ELISA.
Background: ELISA stands for enzyme-linked immunosorbent assay.

For the next assay, the system named is TNF-α. As to the kind of experiment: LPS-induced inflammatory response in astrocytes, TNF-α release (ELISA). The conditions noted are these: culture supernatant, LPS 1 μg·ml-1 + substance 10 μg·ml-1, 24 h, n=6. The class given is cell-based, Kunming mice.
Text: as §1, §2, §3

As to `CN1c2c([nH]c(N)nc2=O)NCC1CNc1ccc(C(=O)N[C@@H](CCC(=O)O)C(=O)O)cc1` (stereo partly drawn) [5-methyltetrahydrofolate, N-[4-[[(2-amino-1,4,5,6,7,8-hexahydro-4-oxo-5-methyl-(6S), -(6R), and (6R,S)-pteridyl)methyl)amino)toluoyl-glutamic acid], the Hcy with homocysteine (Hcy) (4 mg·Kg−1, n=6) stood at 3.13 ± 1.26 µmol/L; in the assay on homocysteine (Hcy) (8 mg·Kg−1, n=6), 2.32 ± 1.49 µmol/L.
Regarding 5-methyltetrahydrofolate calcium, the Body weight in assay [1] (1 mg·kg−1·d−1 ig, Week 0, n=16) is reported as 195.64 g; in assay [1] (1 mg·kg−1·d−1 ig, Week 1, n=16), 215.16 g; in assay [1] (1 mg·kg−1·d−1 ig, Week 2, n=16), 282.30 g; in assay [1] (1 mg·kg−1·d−1 ig, Week 3, n=16), 299.34 g; in assay [1] (1 mg·kg−1·d−1 ig, Week 4, n=16), 312.99 g; in assay [1] (1 mg·kg−1·d−1 ig, Week 5, n=16) it was 317.48 g. The Body weight in assay [1] (1 mg·kg−1·d−1 ig, Week 6, n=16) worked out at 334.47 g; in assay [1] (1 mg·kg−1·d−1 ig, Week 7, n=16) it was 355.89 g; in assay [1] (1 mg·kg−1·d−1 ig, Week 8, n=16), 375.85 g; in assay [1] (2 mg·kg−1·d−1 ig, Week 0, n=16), 190.85 g; in assay [1] (2 mg·kg−1·d−1 ig, Week 1, n=16), 219.44 g; in assay [1] (2 mg·kg−1·d−1 ig, Week 2, n=16), 274.69 g. For the same molecule, the Body weight in assay [1] (2 mg·kg−1·d−1 ig, Week 3, n=16) was determined as 293.12 g; in assay [1] (2 mg·kg−1·d−1 ig, Week 4, n=16) it was 321.78 g; in assay [1] (2 mg·kg−1·d−1 ig, Week 5, n=16), 328.10 g; in assay [1] (2 mg·kg−1·d−1 ig, Week 6, n=16) it was 345.05 g; in assay [1] (2 mg·kg−1·d−1 ig, Week 7, n=16), 352.90 g; in assay [1] (2 mg·kg−1·d−1 ig, Week 8, n=16), 383.69 g. The Body weight in assay [1] (4 mg·kg−1·d−1 ig, Week 0, n=16) was determined as 196.33 g; in assay [1] (4 mg·kg−1·d−1 ig, Week 1, n=16), 218.24 g; in assay [1] (4 mg·kg−1·d−1 ig, Week 2, n=16), 285.54 g; in assay [1] (4 mg·kg−1·d−1 ig, Week 3, n=16) it was 296.05 g; in assay [1] (4 mg·kg−1·d−1 ig, Week 4, n=16) it was 307.43 g; in assay [1] (4 mg·kg−1·d−1 ig, Week 5, n=16) it was 321.49 g. Moreover, the Body weight in assay [1] (4 mg·kg−1·d−1 ig, Week 6, n=16) turned out to be 349.47 g; in assay [1] (4 mg·kg−1·d−1 ig, Week 7, n=16), 372.49 g; in assay [1] (4 mg·kg−1·d−1 ig, Week 8, n=16), 392.02 g. For the same molecule, the MDA turned out to be 45.20 ± 8.17 nmol/mgprot with hyperlipemia rats (1 mg·kg−1·d−1, 60 d); 42.26 ± 9.35 nmol/mgprot in the assay with hyperlipemia rats (2 mg·kg−1·d−1, 60 d); 40.98 ± 11.37 nmol/mgprot in the assay with hyperlipemia rats (4 mg·kg−1·d−1, 60 d). Also, the SOD amounted to 234.20 ± 21.36 U/mgprot in the assay on hyperlipemia rats (1 mg·kg−1·d−1, 60 d); 257.41 ± 30.29 U/mgprot in the assay with hyperlipemia rats (2 mg·kg−1·d−1, 60 d); 260.97 ± 30.04 U/mgprot with hyperlipemia rats (4 mg·kg−1·d−1, 60 d). For the same molecule, the TC is recorded as 1.45 ± 0.38 mmol/L in the assay on hyperlipemia rats (1 mg·kg−1·d−1, 60 d); 1.57 ± 0.36 mmol/L with hyperlipemia rats (2 mg·kg−1·d−1, 60 d); 1.50 ± 0.34 mmol/L with hyperlipemia rats (4 mg·kg−1·d−1, 60 d). Besides, the TG with hyperlipemia rats (1 mg·kg−1·d−1, 60 d) stood at 1.07 ± 0.33 mmol/L; with hyperlipemia rats (2 mg·kg−1·d−1, 60 d) it was 1.03 ± 0.55 mmol/L; in the assay with hyperlipemia rats (4 mg·kg−1·d−1, 60 d), 1.05 ± 0.63 mmol/L. Moreover, the IL-6 in the assay on IL-6 was determined as 993.24 ± 52.05 pg/mL. Further, the TNF-α in the assay on TNF-α stood at 489.21 ± 10.71 pg/mL.
